Experimental data: US7935182B2, “Solution for wood preservation” (priority 2004, dated 2011)

Assay: copper leaching from wood impregnated with preservative solution
Format: physicochemical

SMILES	Copper leached in % (wood treated with copper based preservative solution)	copper leaching rates compared to diethanolamine or triethanolamine (wood impregnated with preservative solution, ethanolamine used as amine source)
O=S(=O)([O-])[O-].[Cu+2] [Copper (II) sulphate]	45-55%^	–
NCCO [ethanolamine]	–	Almost ten times lowest
